Results published in patent US20060229433A1, “Modified antiviral peptides with increased activity and cell membrane affinity” (priority 2003, published 2006).
Where “and” joins values, the source holds several entries; their conditions need not be identical. Equal entries are not always repeated. Peptide text beside a SMILES is read from it.

Legend:
Type in all cases: cell-based
HIV-1 NDK = assay: HIV-1 infection of C8166 cells (syncytia formation, p24 ELISA) with HIV-1 NDK; design: key to syncitia formed, Day 4 / syncitia formed, Day 5 / syncitia formed, Day 6 / syncitia formed, Day 7: ++, +, (+), (+)− and − represent decreasing numbers of syncitia formed; ++, +, (+), (+)− and − represent decreasing numbers of syncitia formed; ++, +, (+), (+)− and − represent decreasing numbers of syncitia formed; ++, +, (+), (+)− and − represent decreasing numbers of syncitia formed; ++, +, (+), (+)− and − represent decreasing numbers of syncitia formed; conditions: for P 24: P 24 after Day 7
Experimental: HIV-1 NL 4-3 isolate (Adachi et al., 1986; Barré-Sinoussi et al., 1983) and highly cytopathic Zairian HIV-1 NDK isolate (Ellrodt et al., 1984) was propagated in permissive CEM cells (Nara et al., 1987). Uninfected CEM and C8166 (Salahuddin et al., 1983) were maintained in RPMI 1640 (R10) with ultraglutamine (cambrex, Vervier, Belgium), penicillin (100 U/ml), streptomycin (100 μg/ml), and 10% heat-inactivated fetal calf serum (Cambrex).
Samples of 3×10^5/100 μL C8166 cells were preincubated in 96-well microtiter plates in culture medium containing various concentrations of peptide. After a 1 h treatment at 37° C., 100 μl of diluted viral solution of HIV-1 was added. The cells were exposed to the virus for 1 h at 37° C. at a multiplicity of infection of 1000 TCID50 per ml. The cells were washed three times and cultured at 3×10^5/ml of R10 with the treatment in 24-well plates incubated at 37° C. C8166 culture medium was replaced at Day-4 post-infection. The treatment was permanent before virus adsorption, during virus adsorption and after infection. Assays on C8166 cells have been performed at least twice and in duplicate. Toxicity was evaluated by daily cell count and trypan-blue exclusion assay. Infection of C8166 T-cells with HIV-1 was assessed by virus-induced cytopathic effects (syncytia formation) and by quantification of cell free p24 viral protein in the culture supernatants. Measurements of HIV-1 p24^gag concentration in the culture supernatants were achieved by ELISA (ALLIANCE® HIV-1 p24 kit, Perkin Elmer, life sciences, USA).

HIV-1 NL 4-3 [1] = assay: HIV-1 infection of C8166 cells (syncytia formation, p24 ELISA) with HIV-1 NL 4-3; design: key to syncitia formed, Day 4 / syncitia formed, Day 5 / syncitia formed, Day 6 / syncitia formed, Day 7: ++, +, (+), (+)− and − represent decreasing numbers of syncitia formed; ++, +, (+), (+)− and − represent decreasing numbers of syncitia formed; ++, +, (+), (+)− and − represent decreasing numbers of syncitia formed; ++, +, (+), (+)− and − represent decreasing numbers of syncitia formed; ++, +, (+), (+)− and − represent decreasing numbers of syncitia formed
Outline: (§1)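 C8166 T-cells were preincubated with peptide for 1 h at 37 °C, then exposed for 1 h to HIV-1 at 1000 TCID50/ml, washed, and cultured with peptide kept present throughout, with medium replaced at day 4. Infection was scored by syncytia formation and by supernatant p24 ELISA, with at least two runs in duplicate.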

HIV-1 NL 4-3 [2] = assay: as above; design: key: ++, +, (+), (+)− and − represent decreasing numbers of syncitia formed; ++, +, (+), (+)− and − represent decreasing numbers of syncitia formed; ++, +, (+), (+)− and − represent decreasing numbers of syncitia formed; ++, +, (+), (+)− and − represent decreasing numbers of syncitia formed; ++, +, (+), (+)− and − represent decreasing numbers of syncitia formed; conditions: Table 6
Outline: as §1

[3] = C8166 cells, HIV-1 subtype B NL 4-3, Table 9, two lines = tested twice, 8 days apart

## NCC(=O)N1CCC[C@H]1C(=O)NCC(=O)O [GPG, reference compound] (H-Gly-Pro-Gly-OH)
HIV-1 NDK; 0.005 μM
  syncitia formed, Day 4: +
  syncitia formed, Day 5: +
  syncitia formed, Day 6: ++
  syncitia formed, Day 7: ++
  P 24: 23810 pg/mL
HIV-1 NDK; 0.01 μM
  syncitia formed, Day 4: +
  syncitia formed, Day 5: +
  syncitia formed, Day 6: ++
  syncitia formed, Day 7: ++
  P 24: 23810 pg/mL
HIV-1 NDK; 0.05 μM
  syncitia formed, Day 4: (+)
  syncitia formed, Day 5: +
  syncitia formed, Day 6: ++
  syncitia formed, Day 7: ++
  P 24: 23810 pg/mL
HIV-1 NDK; 0.1 μM
  syncitia formed, Day 4: −
  syncitia formed, Day 5: +
  syncitia formed, Day 6: ++
  syncitia formed, Day 7: ++
  P 24: 23810 pg/mL
HIV-1 NDK; 0.5 μM
  syncitia formed, Day 4: −
  syncitia formed, Day 5: +
  syncitia formed, Day 6: ++
  syncitia formed, Day 7: ++
  P 24: 21110 pg/mL and 23810 pg/mL
HIV-1 NDK; 1 μM
  syncitia formed, Day 4: −
  syncitia formed, Day 5: (+)
  syncitia formed, Day 6: +
  syncitia formed, Day 7: +
  P 24: 3810 pg/mL and 2507 pg/mL
HIV-1 NDK; 5 μM
  syncitia formed, Day 4: −
  syncitia formed, Day 5: −
  syncitia formed, Day 6: −
  syncitia formed, Day 7: +
  P 24: 2733 pg/mL and 2400 pg/mL
HIV-1 NDK; HIV 1 NDK, Table 10
  IC50: 500 nM
  IC100: >5 µM
HIV-1 NL 4-3 [1]; 0.005 μM, Table 6
  Day 7 syncitia formed: ++/T
HIV-1 NL 4-3 [1]; 0.01 μM, C8166 cells
  syncitia formed, Day 4: (+)
  syncitia formed, Day 5: (+)
  syncitia formed, Day 6: +
HIV-1 NL 4-3 [1]; 0.01 μM, Day 7, C8166 cells
  syncitia formed, Day 7: ++
HIV-1 NL 4-3 [1]; 0.01 μM, P 24 after Day 7, C8166 cells
  P 24: 9810 pg/mL and 15810 pg/mL
HIV-1 NL 4-3 [1]; 0.1 μM, C8166 cells
  syncitia formed, Day 4: −
  syncitia formed, Day 5: −
  syncitia formed, Day 6: (+)
HIV-1 NL 4-3 [1]; 0.1 μM, Day 7, C8166 cells
  syncitia formed, Day 7: +
HIV-1 NL 4-3 [1]; 0.1 μM, P 24 after Day 7, C8166 cells
  P 24: 807 pg/mL and 1506 pg/mL
HIV-1 NL 4-3 [1]; 0.5 μM, C8166 cells
  syncitia formed, Day 4: −
  syncitia formed, Day 5: −
  syncitia formed, Day 6: − and (+)
HIV-1 NL 4-3 [1]; 0.5 μM, Day 7, C8166 cells
  syncitia formed, Day 7: (+) and +
HIV-1 NL 4-3 [1]; 1 μM, C8166 cells
  syncitia formed, Day 4: −
  syncitia formed, Day 5: −
  syncitia formed, Day 6: −
HIV-1 NL 4-3 [1]; 1 μM, Day 7, C8166 cells
  syncitia formed, Day 7: (+)
HIV-1 NL 4-3 [1]; 1 μM, P 24 after Day 7, C8166 cells
  P 24: 62 pg/mL and 42 pg/mL
HIV-1 NL 4-3 [1]; 5 μM, C8166 cells
  syncitia formed, Day 4: −
  syncitia formed, Day 5: −
  syncitia formed, Day 6: −
HIV-1 NL 4-3 [1]; 5 μM, Day 7, C8166 cells
  syncitia formed, Day 7: −
HIV-1 NL 4-3 [1]; [3]
  IC50: 10 nM
  IC100: 5 µM
HIV-1 NL 4-3 [1]; Day 7, 0.005 μM, Table 6
  P 24: 23810 pg/mL
HIV-1 NL 4-3 [1]; Day 7, 0.01 μM, Table 6
  P 24: 13850 pg/mL and 11756 pg/mL
HIV-1 NL 4-3 [1]; Day 7, 0.05 μM, Table 6
  P 24: 7330 pg/mL and 9810 pg/mL
HIV-1 NL 4-3 [1]; Day 7, 1 μM, Table 6
  P 24: 5.4 pg/mL and 3.8 pg/mL
HIV-1 NL 4-3 [2]; 0.005 μM
  Day 4 syncitia formed: −
  Day 5 syncitia formed: +
  Day 6 syncitia formed: ++
HIV-1 NL 4-3 [2]; 0.01 μM
  Day 4 syncitia formed: −
  Day 5 syncitia formed: (+)
  Day 6 syncitia formed: +
  Day 7 syncitia formed: ++
HIV-1 NL 4-3 [2]; 0.05 μM
  Day 4 syncitia formed: −
  Day 5 syncitia formed: −
  Day 6 syncitia formed: (+)
  Day 7 syncitia formed: +
HIV-1 NL 4-3 [2]; 0.1 μM
  Day 4 syncitia formed: −
  Day 5 syncitia formed: −
  Day 6 syncitia formed: −
  Day 7 syncitia formed: +
HIV-1 NL 4-3 [2]; 0.5 μM
  Day 4 syncitia formed: −
  Day 5 syncitia formed: −
  Day 6 syncitia formed: −
  Day 7 syncitia formed: −
HIV-1 NL 4-3 [2]; 1 μM
  Day 4 syncitia formed: −
  Day 5 syncitia formed: −
  Day 6 syncitia formed: −
  Day 7 syncitia formed: −
HIV-1 NL 4-3 [2]; 5 μM
  Day 4 syncitia formed: −
  Day 5 syncitia formed: −
  Day 6 syncitia formed: −
  Day 7 syncitia formed: −
